Columns and labels:
human TLR7 = human TLR7 (Homo sapiens (Human), UniProt Q9NYK1); assay: TLR7 inhibition reporter assay (HEK-Blue SEAP); assay type: cell-based; settings: HEK-Blue cells overexpressing human TLR7, SEAP reporter, gardiquimod 7.5 μM
human TLR8 = human TLR8 (Homo sapiens (Human), UniProt Q9NR97); assay: TLR8 inhibition reporter assay (HEK-Blue SEAP); settings: read-out: TLR8 IC50; HEK-Blue cells overexpressing human TLR8, SEAP reporter, R848 15.9 μM;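 note: SEAP driven by IFN-β minimal promoter carrying NF-κB and AP-1 sites, compounds dosed 0.05 nM to 50 µM for 22 h, inhibition scaled between agonist-plus-DMSO and reference-inhibitor wells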
human TLR8, sequence (Q9NR97 27-1041): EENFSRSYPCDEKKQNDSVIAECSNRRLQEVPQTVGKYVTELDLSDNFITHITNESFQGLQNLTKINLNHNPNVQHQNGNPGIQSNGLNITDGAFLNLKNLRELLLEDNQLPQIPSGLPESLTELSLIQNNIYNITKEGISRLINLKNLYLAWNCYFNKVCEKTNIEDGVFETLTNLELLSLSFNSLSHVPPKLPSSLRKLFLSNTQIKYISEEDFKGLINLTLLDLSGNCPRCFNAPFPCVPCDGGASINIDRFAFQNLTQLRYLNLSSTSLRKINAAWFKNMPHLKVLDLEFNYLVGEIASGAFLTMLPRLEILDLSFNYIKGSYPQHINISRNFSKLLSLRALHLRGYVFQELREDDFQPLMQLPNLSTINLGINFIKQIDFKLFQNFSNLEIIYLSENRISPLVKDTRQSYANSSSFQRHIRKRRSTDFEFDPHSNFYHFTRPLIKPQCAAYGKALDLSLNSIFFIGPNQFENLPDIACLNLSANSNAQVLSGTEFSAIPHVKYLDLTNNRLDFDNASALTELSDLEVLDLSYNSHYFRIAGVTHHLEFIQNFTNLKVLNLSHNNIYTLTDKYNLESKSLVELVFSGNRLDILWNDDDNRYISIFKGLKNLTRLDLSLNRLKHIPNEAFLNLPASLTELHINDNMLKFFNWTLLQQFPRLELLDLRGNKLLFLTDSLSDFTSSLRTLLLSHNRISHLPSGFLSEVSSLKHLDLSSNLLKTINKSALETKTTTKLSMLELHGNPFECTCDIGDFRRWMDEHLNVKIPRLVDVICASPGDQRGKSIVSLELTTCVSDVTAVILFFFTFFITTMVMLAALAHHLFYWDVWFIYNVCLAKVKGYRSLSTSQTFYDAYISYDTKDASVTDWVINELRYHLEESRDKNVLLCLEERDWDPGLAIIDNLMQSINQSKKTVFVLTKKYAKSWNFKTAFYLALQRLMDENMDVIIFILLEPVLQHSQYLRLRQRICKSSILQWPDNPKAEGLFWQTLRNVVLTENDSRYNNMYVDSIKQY

human TLR9 = human TLR9 (Homo sapiens (Human), UniProt Q9NR96); assay: TLR9 inhibition reporter assay (HEK-Blue SEAP); settings: read-out: TLR9 IC50; HEK-Blue cells overexpressing human TLR9, SEAP reporter, ODN2006 5 nM;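 note: SEAP driven by an IFN-β minimal promoter with NF-κB and AP-1 sites, read after 22 h, compounds dosed 0.05 nM–50 µM, inhibition scaled between agonist plus DMSO and reference-inhibitor wells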
human TLR9, sequence (Q9NR96 26-1032): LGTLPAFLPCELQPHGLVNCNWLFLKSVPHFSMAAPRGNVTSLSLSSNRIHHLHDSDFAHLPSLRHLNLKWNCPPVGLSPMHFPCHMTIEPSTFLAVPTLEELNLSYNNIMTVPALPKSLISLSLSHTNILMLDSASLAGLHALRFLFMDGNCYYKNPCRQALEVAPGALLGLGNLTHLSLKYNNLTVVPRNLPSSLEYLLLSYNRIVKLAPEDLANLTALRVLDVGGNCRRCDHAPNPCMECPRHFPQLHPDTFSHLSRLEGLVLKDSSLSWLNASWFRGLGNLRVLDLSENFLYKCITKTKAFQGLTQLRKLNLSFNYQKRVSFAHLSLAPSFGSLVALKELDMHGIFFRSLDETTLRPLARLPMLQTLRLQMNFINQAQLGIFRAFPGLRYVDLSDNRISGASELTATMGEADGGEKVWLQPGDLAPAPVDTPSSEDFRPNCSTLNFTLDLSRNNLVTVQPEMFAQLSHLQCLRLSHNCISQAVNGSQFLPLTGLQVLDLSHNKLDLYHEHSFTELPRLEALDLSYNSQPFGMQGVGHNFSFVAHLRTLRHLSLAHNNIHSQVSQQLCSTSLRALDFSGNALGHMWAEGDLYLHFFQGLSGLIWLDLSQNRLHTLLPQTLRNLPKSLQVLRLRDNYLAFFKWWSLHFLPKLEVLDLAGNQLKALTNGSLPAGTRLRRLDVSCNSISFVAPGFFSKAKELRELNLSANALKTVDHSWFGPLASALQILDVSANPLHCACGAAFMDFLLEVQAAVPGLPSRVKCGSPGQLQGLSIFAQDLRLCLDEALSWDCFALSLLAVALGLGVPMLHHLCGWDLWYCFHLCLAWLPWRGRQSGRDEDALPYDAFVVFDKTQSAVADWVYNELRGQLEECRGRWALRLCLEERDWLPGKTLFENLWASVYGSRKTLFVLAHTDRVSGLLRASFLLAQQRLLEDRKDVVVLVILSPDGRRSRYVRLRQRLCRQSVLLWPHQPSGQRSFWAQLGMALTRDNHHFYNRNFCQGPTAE

human TLR7, sequence (Q9NYK1 27-1049): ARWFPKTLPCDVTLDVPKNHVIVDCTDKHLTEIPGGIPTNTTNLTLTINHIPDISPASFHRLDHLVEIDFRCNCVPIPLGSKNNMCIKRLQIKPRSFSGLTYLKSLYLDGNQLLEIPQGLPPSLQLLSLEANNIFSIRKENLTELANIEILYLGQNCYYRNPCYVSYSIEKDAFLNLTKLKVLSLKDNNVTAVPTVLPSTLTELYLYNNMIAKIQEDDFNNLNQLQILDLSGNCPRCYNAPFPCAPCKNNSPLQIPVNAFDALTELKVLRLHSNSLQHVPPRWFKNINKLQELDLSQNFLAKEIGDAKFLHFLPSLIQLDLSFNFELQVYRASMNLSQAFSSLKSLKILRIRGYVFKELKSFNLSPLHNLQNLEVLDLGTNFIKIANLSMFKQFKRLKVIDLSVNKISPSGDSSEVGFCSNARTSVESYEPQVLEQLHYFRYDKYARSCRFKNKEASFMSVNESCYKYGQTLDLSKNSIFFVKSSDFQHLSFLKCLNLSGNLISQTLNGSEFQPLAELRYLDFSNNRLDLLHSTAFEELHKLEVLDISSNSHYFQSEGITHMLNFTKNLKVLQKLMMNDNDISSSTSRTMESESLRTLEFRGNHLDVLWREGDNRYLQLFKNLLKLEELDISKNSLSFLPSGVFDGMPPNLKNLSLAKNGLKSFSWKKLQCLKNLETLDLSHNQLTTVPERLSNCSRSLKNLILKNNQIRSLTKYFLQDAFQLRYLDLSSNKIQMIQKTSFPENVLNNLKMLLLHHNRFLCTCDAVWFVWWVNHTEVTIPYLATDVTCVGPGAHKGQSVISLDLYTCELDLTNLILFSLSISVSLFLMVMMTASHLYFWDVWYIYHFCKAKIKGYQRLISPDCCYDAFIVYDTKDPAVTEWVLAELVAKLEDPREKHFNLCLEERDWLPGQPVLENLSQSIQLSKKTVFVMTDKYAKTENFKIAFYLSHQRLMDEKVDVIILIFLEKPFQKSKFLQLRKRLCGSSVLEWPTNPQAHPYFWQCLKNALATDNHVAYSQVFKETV

`COc1cc(-c2[nH]c3ccc(C4CN(C)CCO4)nc3c2C(C)C)cn2ncnc12` (stereo not drawn) [Example 661] was tested, and the IC50 (human TLR7) was 2.3 nM, the IC50 (human TLR8) was 5.5 nM and the IC50 (human TLR9) was 13900 nM.

Compound `Cc1c(-c2[nH]c3ccc(C4CNCCO4)nc3c2C(C)C)cn2ncnc2c1C` (stereo not drawn) [Example 662] has an IC50 (human TLR7) of 1.8 nM, an IC50 (human TLR8) of 1 nM and an IC50 (human TLR9) of 9030 nM.

Work on `Cc1c(-c2[nH]c3ccc(C4CN(C(=O)CN(C)C)CCO4)nc3c2C(C)C)cn2ncnc2c1C` (stereo not drawn) [Example 663] yielded an IC50 (human TLR7) of 3.5 nM, an IC50 (human TLR8) of 9.9 nM and an IC50 (human TLR9) of 21100 nM.

In the case of `Cc1c(-c2[nH]c3ccc(C4CN(C5CCOCC5)CCO4)nc3c2C(C)C)cn2ncnc2c1C` (stereo not drawn) [Example 664], the IC50 (human TLR7) is reported as 22 nM, the IC50 (human TLR8) is reported as 14 nM and the IC50 (human TLR9) is reported as 38500 nM.

In the case of `Cc1cc(-c2[nH]c3ccc(C4CN(C)CCO4)nc3c2C(C)C)cn(C)c1=O` (stereo not drawn) [Example 665], the IC50 (human TLR7) is reported as 34 nM, the IC50 (human TLR8) is reported as 17 nM and the IC50 (human TLR9) is reported as > 50000 nM.

`COc1cc(-c2[nH]c3ccc(C4CNCCO4)nc3c2C(C)C)cn2ncnc12` (stereo not drawn) [Example 666] showed an IC50 (human TLR7) of 0.73 nM, an IC50 (human TLR8) of 1.6 nM and an IC50 (human TLR9) of 6560 nM.

`Cc1cc(-c2[nH]c3ccc(C4CN(C5COC5)CCO4)nc3c2C(C)C)cn(C)c1=O` (stereo not drawn) [Example 667] was tested, and the IC50 (human TLR7) was 145 nM, the IC50 (human TLR8) was 711 nM and the IC50 (human TLR9) was > 50000 nM.

`COc1cc(-c2[nH]c3ccc(C4CN(C(=O)CN(C)C)CCO4)nc3c2C(C)C)cn2ncnc12` (stereo not drawn) [Example 668] gave an IC50 (human TLR7) of 1.7 nM, an IC50 (human TLR8) of 22 nM and an IC50 (human TLR9) of 17500 nM.

For `Cc1cc(-c2[nH]c3ccc(C4CNCCO4)nc3c2C(C)C)cn(C)c1=O` (stereo not drawn) [Example 669], the IC50 (human TLR7) was 7.4 nM, the IC50 (human TLR8) was 5.6 nM and the IC50 (human TLR9) was 31600 nM.

With `Cc1cc(-c2[nH]c3ccc(C4CN(CC#N)CCO4)nc3c2C(C)C)cn(C)c1=O` (stereo not drawn) [Example 670] the IC50 (human TLR7) was 56 nM, the IC50 (human TLR8) was 58 nM and the IC50 (human TLR9) was > 50000 nM.

In the case of `COc1cc(-c2[nH]c3ccc(C4CNCCO4)nc3c2C(C)C)cn2ncnc12` (stereo not drawn) [Example 671, 2-(3-isopropyl-2-(8-methoxy-[1,2,4]triazolo[1,5-a]pyridin-6-yl)-1H-pyrrolo[3,2-b]pyridin-5-yl)morpholine], the IC50 (human TLR7) is reported as 1.4 nM, the IC50 (human TLR8) is reported as 2.1 nM and the IC50 (human TLR9) is reported as 4480 nM.

`COc1cc(-c2[nH]c3ccc(C4CN(C(=O)CCN(C)C)CCO4)nc3c2C(C)C)cn2ncnc12` (stereo not drawn) [Example 672] was tested, and the IC50 (human TLR7) was 4.7 nM, the IC50 (human TLR8) was 90 nM and the IC50 (human TLR9) was 6240 nM.

`Cc1c(-c2[nH]c3ccc(C4CN(C)CCO4)nc3c2C(C)C)cn2ncnc2c1C` (stereo not drawn) [Example 673] was tested, and the IC50 (human TLR7) was 5.2 nM, the IC50 (human TLR8) was 6.9 nM and the IC50 (human TLR9) was 14400 nM.

In the case of `Cc1c(-c2[nH]c3ccc(C4CN(CCS(C)(=O)=O)CCO4)nc3c2C(C)C)cn2ncnc2c1C` (stereo not drawn) [Example 674], the IC50 (human TLR7) is reported as 32 nM, the IC50 (human TLR8) is reported as 48 nM and the IC50 (human TLR9) is reported as > 50000 nM.

`Cc1cc(-c2[nH]c3ccc(C4CNCCO4)nc3c2C(C)C)cn(C)c1=O` (stereo not drawn) [Example 675] gave an IC50 (human TLR7) of 9.7 nM, an IC50 (human TLR8) of 4.6 nM and an IC50 (human TLR9) of 14500 nM.

With `COc1cc(-c2[nH]c3ccc(C4CNCCO4)nc3c2C(C)C)cn2ncnc12` (stereo not drawn) [Example 676] the IC50 (human TLR7) was 1 nM, the IC50 (human TLR8) was 2.5 nM and the IC50 (human TLR9) was 5720 nM.

With `Cc1cc(-c2[nH]c3ccc(C4CN(C(=O)CN(C)C)CCO4)nc3c2C(C)C)cn(C)c1=O` (stereo not drawn) [Example 677] the IC50 (human TLR7) was 17 nM, the IC50 (human TLR8) was 53 nM and the IC50 (human TLR9) was > 50000 nM.

`Cc1cc(-c2[nH]c3ccc(C4CN(C(C)C)CCO4)nc3c2C(C)C)cn(C)c1=O` (stereo not drawn) [Example 678] was tested, and the IC50 (human TLR7) was 36 nM, the IC50 (human TLR8) was 29 nM and the IC50 (human TLR9) was > 50000 nM.

In the case of `Cc1cc(-c2[nH]c3ccc(C4CNCCO4)nc3c2C(C)C)cn(C)c1=O` (stereo not drawn) [Example 679], the IC50 (human TLR7) is reported as 16 nM, the IC50 (human TLR8) is reported as 5.8 nM and the IC50 (human TLR9) is reported as 20700 nM.

`Cc1c(-c2[nH]c3ccc(C4CNCCN4)nc3c2C(C)C)cn2ncnc2c1C` (stereo not drawn) [Example 680, 6-(3-isopropyl-5-(piperazin-2-yl)-1H-pyrrolo[3,2-b]pyridin-2-yl)-7,8-dimethyl-[1,2,4]triazolo[1,5-a]pyridine] was tested, and the IC50 (human TLR7) was 12 nM, the IC50 (human TLR8) was 5.2 nM and the IC50 (human TLR9) was 1060 nM.

`Cc1cc(-c2[nH]c3ccc(CCN4CCCCC4)nc3c2C(C)C)cn2ncnc12` [Example 681] gave an IC50 (human TLR7) of 104 nM, an IC50 (human TLR8) of 199 nM and an IC50 (human TLR9) of 4240 nM.
